Experimental data published in patent US12187742B2 (XRAD Therapeutics, Inc., priority 2018, dated 2025).
Where a name gives a salt, the structure may show the parent alone.

Target: ATM (Homo sapiens (Human), UniProt Q13315)
Experiment: ATM in Cell Western Assay (pKAP1 in etoposide-treated MCF-7 cells)
Format: cell-based
Details: pKAP1 in etoposide-treated MCF-7 cells
Method in brief: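 After paraformaldehyde fixation and Triton X-100 permeabilization, immunostained plates were read by infrared scanning (ODYSSEY CLx). Compound was given as 10 doses, 3-fold dilutions from a 1 μM final top concentration.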

ATM, sequence (Q13315 whole entry): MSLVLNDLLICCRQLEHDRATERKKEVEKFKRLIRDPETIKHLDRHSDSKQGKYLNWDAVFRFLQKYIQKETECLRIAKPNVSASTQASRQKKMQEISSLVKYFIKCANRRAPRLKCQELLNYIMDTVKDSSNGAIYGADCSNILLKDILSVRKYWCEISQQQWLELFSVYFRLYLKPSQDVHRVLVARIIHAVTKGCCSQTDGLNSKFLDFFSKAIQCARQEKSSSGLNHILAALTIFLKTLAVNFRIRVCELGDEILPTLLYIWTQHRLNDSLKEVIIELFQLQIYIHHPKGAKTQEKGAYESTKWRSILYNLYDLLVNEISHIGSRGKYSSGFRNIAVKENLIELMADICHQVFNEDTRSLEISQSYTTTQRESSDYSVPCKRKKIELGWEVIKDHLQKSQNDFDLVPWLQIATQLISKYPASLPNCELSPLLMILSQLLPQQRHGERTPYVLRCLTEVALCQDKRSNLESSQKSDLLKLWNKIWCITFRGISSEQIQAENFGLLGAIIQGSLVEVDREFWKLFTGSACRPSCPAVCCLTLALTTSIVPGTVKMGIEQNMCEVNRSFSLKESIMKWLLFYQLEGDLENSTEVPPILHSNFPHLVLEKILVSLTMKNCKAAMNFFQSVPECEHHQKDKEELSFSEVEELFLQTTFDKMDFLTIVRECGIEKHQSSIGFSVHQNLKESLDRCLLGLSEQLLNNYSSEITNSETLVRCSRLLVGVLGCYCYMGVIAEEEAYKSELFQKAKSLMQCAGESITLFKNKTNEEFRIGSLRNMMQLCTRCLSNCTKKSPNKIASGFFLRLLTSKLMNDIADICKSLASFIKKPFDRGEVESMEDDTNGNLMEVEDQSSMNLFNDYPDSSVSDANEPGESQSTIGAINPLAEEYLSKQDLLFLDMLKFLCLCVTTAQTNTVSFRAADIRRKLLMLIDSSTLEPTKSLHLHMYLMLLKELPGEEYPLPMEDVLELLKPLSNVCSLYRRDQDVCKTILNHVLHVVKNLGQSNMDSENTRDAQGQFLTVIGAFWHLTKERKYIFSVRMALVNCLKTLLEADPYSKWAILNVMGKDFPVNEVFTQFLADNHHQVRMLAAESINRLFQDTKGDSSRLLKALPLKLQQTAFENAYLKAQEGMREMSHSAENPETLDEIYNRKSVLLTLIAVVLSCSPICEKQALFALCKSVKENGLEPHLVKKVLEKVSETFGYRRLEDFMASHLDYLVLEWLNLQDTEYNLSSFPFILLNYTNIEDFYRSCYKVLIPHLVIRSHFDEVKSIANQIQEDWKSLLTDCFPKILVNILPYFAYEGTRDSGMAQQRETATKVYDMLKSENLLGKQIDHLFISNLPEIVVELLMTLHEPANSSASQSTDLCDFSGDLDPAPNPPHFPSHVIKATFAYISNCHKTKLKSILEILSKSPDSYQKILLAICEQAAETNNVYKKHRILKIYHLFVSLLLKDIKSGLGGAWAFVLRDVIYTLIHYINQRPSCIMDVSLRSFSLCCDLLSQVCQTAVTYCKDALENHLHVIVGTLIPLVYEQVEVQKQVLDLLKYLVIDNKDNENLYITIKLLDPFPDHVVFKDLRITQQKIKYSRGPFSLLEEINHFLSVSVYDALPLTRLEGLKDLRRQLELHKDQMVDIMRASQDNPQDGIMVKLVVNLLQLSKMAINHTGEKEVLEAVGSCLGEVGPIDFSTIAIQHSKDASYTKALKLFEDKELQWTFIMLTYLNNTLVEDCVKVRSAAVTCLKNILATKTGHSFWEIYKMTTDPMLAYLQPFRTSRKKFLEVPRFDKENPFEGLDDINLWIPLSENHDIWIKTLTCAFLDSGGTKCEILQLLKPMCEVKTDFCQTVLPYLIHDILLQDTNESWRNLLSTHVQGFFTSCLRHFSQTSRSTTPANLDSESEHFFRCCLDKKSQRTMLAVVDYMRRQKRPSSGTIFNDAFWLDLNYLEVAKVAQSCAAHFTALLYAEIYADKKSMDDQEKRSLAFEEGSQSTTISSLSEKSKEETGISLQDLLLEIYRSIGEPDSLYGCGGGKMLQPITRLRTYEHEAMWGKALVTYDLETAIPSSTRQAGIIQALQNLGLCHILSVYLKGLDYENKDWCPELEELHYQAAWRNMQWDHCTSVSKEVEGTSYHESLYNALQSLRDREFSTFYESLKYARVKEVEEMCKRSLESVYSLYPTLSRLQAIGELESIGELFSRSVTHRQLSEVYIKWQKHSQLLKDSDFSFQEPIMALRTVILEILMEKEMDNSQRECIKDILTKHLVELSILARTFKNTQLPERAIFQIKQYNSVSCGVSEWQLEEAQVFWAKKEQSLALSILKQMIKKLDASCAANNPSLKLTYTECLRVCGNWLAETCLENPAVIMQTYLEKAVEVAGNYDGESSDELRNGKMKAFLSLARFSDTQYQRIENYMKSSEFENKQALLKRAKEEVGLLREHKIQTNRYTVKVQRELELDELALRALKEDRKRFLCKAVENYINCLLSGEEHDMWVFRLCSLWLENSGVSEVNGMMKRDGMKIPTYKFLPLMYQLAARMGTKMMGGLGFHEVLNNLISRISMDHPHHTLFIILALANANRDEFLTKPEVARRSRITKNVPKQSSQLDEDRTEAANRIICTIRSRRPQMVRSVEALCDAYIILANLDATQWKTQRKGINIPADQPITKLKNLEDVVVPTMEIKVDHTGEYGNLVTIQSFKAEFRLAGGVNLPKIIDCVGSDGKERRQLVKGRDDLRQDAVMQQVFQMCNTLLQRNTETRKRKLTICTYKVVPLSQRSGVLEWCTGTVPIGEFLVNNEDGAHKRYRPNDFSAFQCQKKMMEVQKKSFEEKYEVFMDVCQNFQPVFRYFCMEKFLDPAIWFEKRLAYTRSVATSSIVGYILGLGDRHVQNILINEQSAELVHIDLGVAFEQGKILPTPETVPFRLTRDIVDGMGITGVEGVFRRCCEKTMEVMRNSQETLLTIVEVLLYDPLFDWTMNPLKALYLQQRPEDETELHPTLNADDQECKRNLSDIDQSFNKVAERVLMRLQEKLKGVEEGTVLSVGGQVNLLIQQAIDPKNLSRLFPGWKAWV

| IC50 | SMILES |
| --- | --- |
| 1 to 100 nM | CC(C)NCCOc1ncc(-c2cc3c(cc2F)ncc2c3[C@]3(C[C@@H](COC(C)C)C3)C(=O)N2C)cc1NS(C)(=O)=O [Example 411, trans-N-{5-(7′-Fluoro-3-(isopropoxymethyl)-3′-methyl-2′-oxo-2′,3′-dihydrospiro[cyclobutane-1,1′-pyrrolo[2,3-c]quinolin]-8′-yl)-2-(2-(isopropylamino)ethoxy)pyridin-3-yl)methanesulfonamide] |
| 1 to 100 nM | CC(C)NCCOc1ncc(-c2cc3c(cc2F)ncc2c3[C@]3(C[C@@H](COC(C)C)C3)C(=O)N2C)cc1NS(=O)(=O)C(C)C [Example 413, trans-N-{5-(7′-Fluoro-3-(isopropoxymethyl)-3′-methyl-2′-oxo-2′,3′-dihydrospiro[cyclobutane-1,1′-pyrrolo[2,3-c]quinolin]-8′-yl)-2-(2-(isopropylamino)ethoxy)pyridin-3-yl)propane-2-sulfonamide] |
| 1 to 100 nM | CC(C)NCCOc1ncc(-c2cc3c(cc2F)ncc2c3[C@]3(C[C@@H](C)C3)C(=O)N2C)cc1NS(C)(=O)=O [Example 447, trans-N-(5-(7′-Fluoro-3,3′-dimethyl-2′-oxo-2′,3′-dihydrospiro[cyclobutane-1,1′-pyrrolo[2,3-c]quinolin]-8′-yl)-2-(2-(isopropylamino)ethoxy)pyridin-3-yl)methanesulfonamide] |
| 1 to 100 nM | CC(C)NCCOc1ncc(-c2cc3c(cc2F)ncc2c3[C@]3(C[C@H](CN(C)C)C3)C(=O)N2C)cc1NS(C)(=O)=O [Example 452, cis-N-(5-(3-((Dimethylamino)methyl)-7′-fluoro-3′-methyl-2′-oxo-2′,3′-dihydrospiro[cyclobutane-1,1′-pyrrolo[2,3-c]quinolin]-8′-yl)-2-(2-(isopropylamino)ethoxy)pyridin-3-yl)methanesulfonamide] |
| 1 to 100 nM | CC(C)NCCOc1ncc(-c2cc3c(cc2F)ncc2c3[C@]3(C[C@@H](CN(C)C)C3)C(=O)N2C)cc1NS(C)(=O)=O [Example 453, trans-N-(5-(3-((Dimethylamino)methyl)-7′-fluoro-3′-methyl-2′-oxo-2′,3′-dihydrospiro[cyclobutane-1,1′-pyrrolo[2,3-c]quinolin]-8′-yl)-2-(2-(isopropylamino)ethoxy)pyridin-3-yl)methanesulfonamide] |
| > 100 nM | CNC[C@H]1C[C@]2(C1)C(=O)N(C)c1cnc3cc(F)c(-c4cnc(OCCNC(C)C)c(NS(C)(=O)=O)c4)cc3c12 [Example 454, cis-N-(5-(7′-Fluoro-3′-methyl-3-((methylamino)methyl)-2′-oxo-2′,3′-dihydrospiro[cyclobutane-1,1′-pyrrolo[2,3-c]quinolin]-8′-yl)-2-(2-(isopropylamino)ethoxy)pyridin-3-yl)methanesulfonamide] |
| > 100 nM | CNC[C@H]1C[C@@]2(C1)C(=O)N(C)c1cnc3cc(F)c(-c4cnc(OCCNC(C)C)c(NS(C)(=O)=O)c4)cc3c12 [Example 455, trans-N-(5-(7′-Fluoro-3′-methyl-3-((methylamino)methyl)-2′-oxo-2′,3′-dihydrospiro[cyclobutane-1,1′-pyrrolo[2,3-c]quinolin]-8′-yl)-2-(2-(isopropylamino)ethoxy)pyridin-3-yl)methanesulfonamide hydrochloride] |

The next lines start with the molecule.

| SMILES | IC50 |
| --- | --- |
| CC(C)NCCOc1ncc(-c2cc3c(cc2F)ncc2c3[C@]3(C[C@@H](COc4ccccc4)C3)C(=O)N2C)cc1NS(C)(=O)=O [Example 408, trans-N-(5-(7′-Fluoro-3′-methyl-2′-oxo-3-(phenoxymethyl)-2′,3′-dihydrospiro[cyclobulane-1,1′-pyrrolo[2,3-c]quinolin]-8′-yl)-2-(2-(isopropylamino)ethoxy)pyridin-3-yl)methanesulfonamide] | 1 to 100 nM |
| CC(C)NCCOc1ncc(-c2cc3c(cc2F)ncc2c3[C@]3(C[C@H](c4ccc(F)cc4)C3)C(=O)N2C)cc1NS(C)(=O)=O [Example 422, cis-N-(5-(7′-Fluoro-3-(4-fluorophenyl)-3′-methyl-2′-oxo-2′,3′-dihydrospiro[cyclobutane-1,1′-pyrrolo[2,3-c]quinolin]-8′-yl)-2-(2-(isopropylamino)ethoxy)pyridin-3-yl)methanesulfonamide] | 1 to 100 nM |
| CC(C)NCCOc1ncc(-c2cc3c(cc2F)ncc2c3[C@]3(C[C@@H](c4cccc(=O)[nH]4)C3)C(=O)N2C)cc1NS(C)(=O)=O [Example 441, trans-N-(5-(7′-Fluoro-3′-methyl-2′-oxo-3-(6-oxo-1,6-dihydropyridin-2-yl)-2′,3′-dihydrospiro[cyclobutane-1,1′-pyrrolo[2,3-c]quinolin]-8′-yl)-2-(2-(isopropylamino)ethoxy)pyridin-3-yl)methanesulfonamide] | > 100 nM |
| CC(C)NCCOc1ncc(-c2cc3c(cc2F)ncc2c3[C@]3(C[C@H](c4ccc(=O)[nH]c4)C3)C(=O)N2C)cc1NS(C)(=O)=O [Example 442, cis-N-(5-(7′-Fluoro-3′-methyl-2′-oxo-3-(6-oxo-1,6-dihydropyridin-3-yl)-2′,3′-dihydrospiro[cyclobutane-1,1′-pyrrolo[2,3-c]quinolin]-8′-yl)-2-(2-(isopropylamino)ethoxy)pyridin-3-yl)methanesulfonamide] | > 100 nM |
| CC(C)NCCOc1ncc(-c2cc3c(cc2F)ncc2c3[C@]3(C[C@@H](c4ccc(=O)[nH]c4)C3)C(=O)N2C)cc1NS(C)(=O)=O [Example 443, trans-N-(5-(7′-Fluoro-3′-methyl-2′-oxo-3-(6-oxo-1,6-dihydropyridin-3-yl)-2′,3′-dihydrospiro[cyclobutane-1,1′-pyrrolo[2,3-c]quinolin]-8′-yl)-2-(2-(isopropylamino)ethoxy)pyridin-3-yl)methanesulfonamide] | > 100 nM |
| CC(C)NCCOc1ncc(-c2cc3c(cc2F)ncc2c3[C@]3(C[C@H](c4cc[nH]c(=O)c4)C3)C(=O)N2C)cc1NS(C)(=O)=O [Example 444, cis-N-(5-(7′-fluoro-3′-methyl-2′-oxo-3-(2-oxo-1,2-dihydropyridin-4-yl)-2,3′-dihydrospiro[cyclobulane-1,1′-pyrrolo[2,3-c]quinolin]-8′-yl)-2-(2-(isopropylamino)ethoxy)pyridin-3-yl)methanesulfonamide] | > 100 nM |
| CC(C)NCCOc1ncc(-c2cc3c(cc2F)ncc2c3[C@]3(C[C@@H](c4cc[nH]c(=O)c4)C3)C(=O)N2C)cc1NS(C)(=O)=O [Example 445, trans-N-(5-(7′-Fluoro-3′-methyl-2′-oxo-3-(2-oxo-l,2-dihydropyridin-4-yl)-2′,3′-dihydrospiro[cyclobutane-1,1′-pyrrolo[2,3-c]quinolin]-8′-yl)-2-(2-(isopropylamino)ethoxy)pyridin-3-yl)methanesulfonamide] | > 100 nM |
| CN(C)CCCOc1c(NS(C)(=O)=O)cc(-c2ccc3ncc4c(c3c2)C2(CCC2)C(=O)N4C)cc1C(N)=O [Example 449, 2-(3-(Dimethylamino)propoxy)-5-(3′-methyl-2′-oxo-2′,3′-dihydrospiro[cyclobutane-1,1′-pyrrolo[2,3-c]quinolin]-8′-yl)-3-(methylsulfonamido)benzamide] | 1 to 100 nM |
| CC(C)NCCOc1ncc(-c2cc3c(cc2F)ncc2c3[C@]3(C[C@@H](Cc4ccccc4)C3)C(=O)N2C)cc1NS(C)(=O)=O [Example 450, trans-N-(5-(3-Benzyl-7-fluoro-3′-methyl-2′-oxo-2′,3′-dihydrospiro [cyclobutane-1,1′-pyrrolo[2,3-c]quinolin]-8′-yl)-2-(2-(isopropylamino)ethoxy)pyridin-3-yl)methanesulfonamide] | 1 to 100 nM |
